In patent US20240376097A1, “BCL-2 Inhibitor” (BeiGene Ltd., priority 2020, published 2024):

How the values were obtained:
[1] = Metabolic Stability Study, liver microsome incubation (mouse); type: in vitro ADME; details: mouse liver microsomes 0.5 mg/mL, 1 μM compound, NADPH; for half-life at 1 μM: NA^# = very stable, beyond the detection limits, read-out: T1/2 (min) mouse; for microsomal CLint at 1 μM: read-out: CLint (μL × min^−1 × mg^−1) mouse
Summary of the method: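 Test compounds (1 μM) incubated at 37° C with 0.5 mg/mL liver microsomes plus NADPH regenerating system; samples quenched at 0, 30 and 60 min. Parent loss measured by LC-MS/MS, giving CLint and T1/2, with CLint normalised to microsomal protein concentration.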

[2] = system: RS4;11 (BCL-2 dependent acute lymphoblastic leukemia cell line); experiment: RS4;11 Cell Proliferation Assay; type: cell-based; details: Homo sapiens, RS4;11 cells, read-out: Cellular proliferation assay (IC50, nM) RS4
Summary of the method: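 Viability measured via CellTiter-Glo luminescence after a 48 h, 37 °C exposure to compounds (10 points, highest 1 μM). Seeding was 50,000 RS4;11 cells per well in 10% FBS RPMI-1640; IC50 given as mean.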

[3] = target: recombinant human Bcl-2 D103Y protein (Homo sapiens (Human), UniProt P10415, D103Y); experiment: Bcl-2-D103Y Biochemical Assay (TR-FRET); type: binding; details: for IC50: TR-FRET, FITC labeled Bak peptide; for Ratio of Bcl-2 D103Y/Bcl-2 WT: ratio of IC50; for ratio of Bcl-2 D103Y/Bcl-2 wt, compared with F91b in WO2019210828: comparison in words
Summary of the method: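 Compounds titrated against the Bcl-2 D103Y–ligand interaction; inhibition derived from the TR-FRET emission ratio 490 nm/520 nm after 337 nm excitation. Four-parameter logistic fitting gave IC50.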

Chain of recombinant human Bcl-2 D103Y protein (P10415 whole entry D103Y): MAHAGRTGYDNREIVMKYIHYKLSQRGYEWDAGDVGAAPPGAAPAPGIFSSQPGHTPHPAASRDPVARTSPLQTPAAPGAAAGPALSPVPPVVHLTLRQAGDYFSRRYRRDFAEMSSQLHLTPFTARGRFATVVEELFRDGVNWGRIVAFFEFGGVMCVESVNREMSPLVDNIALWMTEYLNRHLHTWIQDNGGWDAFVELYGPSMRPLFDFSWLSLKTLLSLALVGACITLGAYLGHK

## CC(C)c1ccccc1C1CN(Cc2ccc(Cl)cc2)CCN1C1CC2(CCN(c3ccc(C(=O)NS(=O)(=O)c4ccc(NC[C@H]5CC[C@](C)(O)CC5)c([N+](=O)[O-])c4)c(Oc4cnc5[nH]ccc5c4)c3)CC2)C1 (stereo partly shown) [Example 29, 2-((1H-pyrrolo[2,3-b]pyridin-5-yl)oxy)-4-(2-(4-(4-chlorobenzyl)-2-(2-isopropylphenyl)piperazin-1-yl)-7-azaspiro[3.5]nonan-7-yl)-N-((4-((((1r,4r)-4-hydroxy-4-methylcyclohexyl)methyl)amino)-3-nitrophenyl)sulfonyl)benzamide]
[1]
  half-life at 1 μM: 2360 min
  microsomal CLint at 1 μM: 0.6 µL/min/mg
[2]
  IC50: 0.43 nM
[3]
  IC50: 0.57 nM
  Ratio of Bcl-2 D103Y/Bcl-2 WT: 1.9

## COc1cc(CN2CCN(C3CC4(CCN(c5ccc(C(=O)NS(=O)(=O)c6ccc(NC[C@H]7CC[C@](C)(O)CC7)c([N+](=O)[O-])c6)c(Oc6cnc7[nH]cc(F)c7c6)c5)CC4)C3)[C@H](c3ccccc3C(C)C)C2)cc2ccoc12 [Example 281, 2-((3-fluoro-1H-pyrrolo[2,3-b]pyridin-5-yl)oxy)-N-((4-((((1r,4r)-4-hydroxy-4-methylcyclohexyl)methyl)amino)-3-nitrophenyl)sulfonyl)-4-(2-((R)-2-(2-isopropylphenyl)-4-((7-methoxybenzofuran-5-yl)methyl)piperazin-1-yl)-7-azaspiro[3.5]nonan-7-yl)benzamide]
[1]
  half-life at 1 μM: 564 min
  microsomal CLint at 1 μM: 2.5 µL/min/mg
[2]
  IC50: 0.13 nM
[3]
  IC50: 0.51 nM
  Ratio of Bcl-2 D103Y/Bcl-2 WT: 1.2

## COc1cc(CN2CCN(C3CC4(CCN(c5ccc(C(=O)NS(=O)(=O)c6ccc(NC[C@H]7CC[C@](C)(O)CC7)c([N+](=O)[O-])c6)c(Oc6cnc7[nH]cc(F)c7c6)c5)CC4)C3)[C@H](c3ccccc3C(C)C)C2)cc2c1OCC2(C)C [Example 285, 2-((3-fluoro-1H-pyrrolo[2,3-b]pyridin-5-yl)oxy)-N-((4-((((1r,4r)-4-hydroxy-4-methylcyclohexyl)methyl)amino)-3-nitrophenyl)sulfonyl)-4-(2-((R)-2-(2-isopropylphenyl)-4-((7-methoxy-3,3-dimethyl-2,3-dihydrobenzofuran-5-yl)methyl)piperazin-1-yl)-7-azaspiro [3.5]nonan-7-yl)benzamide]
[1]
  half-life at 1 μM: 177 min
  microsomal CLint at 1 μM: 7.8 µL/min/mg
[2]
  IC50: 0.18 nM
[3]
  IC50: 0.49 nM
  Ratio of Bcl-2 D103Y/Bcl-2 WT: 1.9

## COc1ccc(CN2CCN(C3CC4(CCN(c5ccc(C(=O)NS(=O)(=O)c6ccc(NC[C@H]7CC[C@](C)(O)CC7)c([N+](=O)[O-])c6)c(Oc6cnc7[nH]ccc7c6)c5)CC4)C3)C(c3ccccc3C(C)C)C2)cn1 (stereo partly shown) [Example 72, 2-((1H-pyrrolo[2,3-b]pyridin-5-yl)oxy)-N-((4-((((1r,4r)-4-hydroxy-4-methylcyclohexyl)methyl)amino)-3-nitrophenyl)sulfonyl)-4-(2-(2-(2-isopropylphenyl)-4-((6-methoxypyridin-3-yl)methyl)piperazin-1-yl)-7-azaspiro[3.5]nonan-7-yl)benzamide]
[1]
  half-life at 1 μM: 159 min
  microsomal CLint at 1 μM: 8.7 µL/min/mg
[2]
  IC50: 0.45 nM
[3]
  IC50: 0.08 nM
  ratio of Bcl-2 D103Y/Bcl-2 wt, compared with F91b in WO2019210828: significantly lower
  Ratio of Bcl-2 D103Y/Bcl-2 WT: 1.6

## COc1cc(CN2CCN(C3CC4(C3)CN(c3ccc(C(=O)NS(=O)(=O)c5ccc(NC[C@H]6CC[C@](C)(O)CC6)c([N+](=O)[O-])c5)c(Oc5cnc6[nH]cc(F)c6c5)c3)C4)[C@H](c3ccccc3C(C)C)C2)cc2c1OCCC2 [Example 312, 2-((3-fluoro-1H-pyrrolo[2,3-b]pyridin-5-yl)oxy)-N-((4-((((1r,4r)-4-hydroxy-4-methylcyclohexyl)methyl)amino)-3-nitrophenyl)sulfonyl)-4-(6-((R)-2-(2-isopropylphenyl)-4-((8-methoxychroman-6-yl)methyl)piperazin-1-yl)-2-azaspiro[3.3]heptan-2-yl)benzamide]
[1]
  half-life at 1 μM: 362 min
  microsomal CLint at 1 μM: 3.8 µL/min/mg
[2]
  IC50: 0.27 nM
[3]
  IC50: 0.081 nM
  Ratio of Bcl-2 D103Y/Bcl-2 WT: 1.0

## COc1cc(CN2CCN(C3CC4(C3)CN(c3ccc(C(=O)NS(=O)(=O)c5ccc(NC[C@H]6CC[C@](C)(O)CC6)c([N+](=O)[O-])c5)c(Oc5cnc6[nH]cc(F)c6c5)c3)C4)[C@H](c3ccccc3C(C)C)C2)ccc1C [Example 274, 2-((3-fluoro-1H-pyrrolo[2,3-b]pyridin-5-yl)oxy)-N-((4-((((1r,4r)-4-hydroxy-4-methylcyclohexyl)methyl)amino)-3-nitrophenyl)sulfonyl)-4-(6-((R)-2-(2-isopropylphenyl)-4-(3-methoxy-4-methylbenzyl)piperazin-1-yl)-2-azaspiro[3.3]heptan-2-yl) benzamide]
[1]
  half-life at 1 μM: 289 min
  microsomal CLint at 1 μM: 4.8 µL/min/mg
[2]
  IC50: 0.15 nM
[3]
  IC50: 0.31 nM
  Ratio of Bcl-2 D103Y/Bcl-2 WT: 0.57

## COc1ccc(CN2CCN(C3CC4(C3)CN(c3ccc(C(=O)NS(=O)(=O)c5ccc(NC[C@H]6CC[C@](C)(O)CC6)c([N+](=O)[O-])c5)c(Oc5cnc6[nH]ccc6c5)c3)C4)[C@H](c3ccccc3C(C)C)C2)cc1OC [Example 145, 2-((1H-pyrrolo[2,3-b]pyridin-5-yl)oxy)-4-(6-((R)-4-(3,4-dimethoxybenzyl)-2-(2-isopropylphenyl)piperazin-1-yl)-2-azaspiro[3.3]heptan-2-yl)-N-((4-((((1r,4r)-4-hydroxy-4-methylcyclohexyl)methyl)amino)-3-nitrophenyl)sulfonyl)benzamide]
[1]
  half-life at 1 μM: 196 min
  microsomal CLint at 1 μM: 7.1 µL/min/mg
[2]
  IC50: 0.104 nM
[3]
  IC50: 0.045 nM
  ratio of Bcl-2 D103Y/Bcl-2 wt, compared with F91b in WO2019210828: significantly lower
  Ratio of Bcl-2 D103Y/Bcl-2 WT: 1.6

## CC(C)c1ccccc1[C@@H]1CN(Cc2cccc3c2OCCO3)CCN1C1CC2(CCN(c3ccc(C(=O)NS(=O)(=O)c4ccc(NC[C@H]5CC[C@](C)(O)CC5)c([N+](=O)[O-])c4)c(Oc4cnc5[nH]ccc5c4)c3)CC2)C1 [Example 79a, 2-((1H-pyrrolo[2,3-b]pyridin-5-yl)oxy)-4-(2-(R-4-((2,3-dihydrobenzo [b][1,4]dioxin-5-yl)methyl)-2-(2-isopropylphenyl)piperazin-1-yl)-7-azaspiro[3.5]nonan-7-yl)-N-((4-((((1r,4r)-4-hydroxy-4-methylcyclohexyl)methyl)amino)-3-nitrophenyl)sulfonyl)benzamide]
[1]
  half-life at 1 μM: 124 min
  microsomal CLint at 1 μM: 11.2 µL/min/mg
[2]
  IC50: 0.104 nM
[3]
  IC50: 0.2 nM
  Ratio of Bcl-2 D103Y/Bcl-2 WT: 1.9

## COc1ccc(CN2CCN(C3CC4(CCN(c5ccc(C(=O)NS(=O)(=O)c6ccc(NC[C@H]7CC[C@](C)(O)CC7)c([N+](=O)[O-])c6)c(Oc6cnc7[nH]cc(F)c7c6)c5)CC4)C3)[C@H](c3ccccc3C(C)C)C2)cc1OC [Example 127, 4-(2-((R)-4-(3,4-dimethoxybenzyl)-2-(2-isopropylphenyl)piperazin-1-yl)-7-azaspiro[3.5]nonan-7-yl)-2-((3-fluoro-1H-pyrrolo[2,3-b]pyridin-5-yl)oxy)-N-((4-((((1r,4r)-4-hydroxy-4-methylcyclohexyl)methyl)amino)-3-nitrophenyl)sulfonyl)benzamide]
[1]
  half-life at 1 μM: 182 min
  microsomal CLint at 1 μM: 7.63 µL/min/mg
[2]
  IC50: 0.167 nM
[3]
  IC50: 0.11 nM
  ratio of Bcl-2 D103Y/Bcl-2 wt, compared with F91b in WO2019210828: significantly lower
  Ratio of Bcl-2 D103Y/Bcl-2 WT: 1

## CC(C)c1ccccc1C1CN(Cc2ccc(C(F)(F)F)cc2)CCN1C1CC2(CCN(c3ccc(C(=O)NS(=O)(=O)c4ccc(NC[C@H]5CC[C@](C)(O)CC5)c([N+](=O)[O-])c4)c(Oc4cnc5[nH]ccc5c4)c3)CC2)C1 (stereo partly shown) [Example 41, 2-((1H-pyrrolo[2,3-b]pyridin-5-yl)oxy)-N-((4-((((1r,4r)-4-hydroxy-4-methylcyclohexyl)methyl)amino)-3-nitrophenyl)sulfonyl)-4-(2-(2-(2-isopropylphenyl)-4-(4-(trifluoromethyl)benzyl)piperazin-1-yl)-7-azaspiro[3.5]nonan-7-yl) benzamide]
[1]
  half-life at 1 μM: 683 min
  microsomal CLint at 1 μM: 2 µL/min/mg
[2]
  IC50: 0.74 nM
[3]
  IC50: 3.1 nM
  Ratio of Bcl-2 D103Y/Bcl-2 WT: 3.7

## CC(C)c1ccccc1C1CN(Cc2cccc(F)c2)CCN1C1CC2(CCN(c3ccc(C(=O)NS(=O)(=O)c4ccc(NC[C@H]5CC[C@](C)(O)CC5)c([N+](=O)[O-])c4)c(Oc4cnc5[nH]ccc5c4)c3)CC2)C1 (stereo partly shown) [Example 43, 2-((1H-pyrrolo[2,3-b]pyridin-5-yl)oxy)-4-(2-(4-(3-fluorobenzyl)-2-(2-isopropylphenyl)piperazin-1-yl)-7-azaspiro[3.5]nonan-7-yl)-N-((4-((((1r,4r)-4-hydroxy-4-methylcyclohexyl)methyl)amino)-3-nitrophenyl)sulfonyl)benzamide]
[1]
  half-life at 1 μM: 193 min
  microsomal CLint at 1 μM: 7.1 µL/min/mg
[2]
  IC50: 0.48 nM
[3]
  IC50: 0.83 nM
  Ratio of Bcl-2 D103Y/Bcl-2 WT: 2.7
